First: CC(=O)CC[C@H](NC(=O)OCc1ccccc1)C(N)=O
Second: CC(C)(C)OC(=O)NC(CO)C(=O)c1ccccc1 (stereo not drawn)
The melting point of the first is higher: 142 to 144 °C for the first, 69 to 71 °C for the second.

Going from `CC(=O)n1cc(-c2ccccc2)c(O)n1` to `CC(=O)N1c2ccccc2C[C@H]1C(N)=O`, the melting point rises from 215 °C to over 260 °C.

First: O=C(CC1=C(n2nc(-c3c(-c4ccccc4)nn4ccccc34)ccc2=O)CCCC1)N1CCOCC1
Second: O=C(c1cc(-c2ccccc2)c(=O)n2c1-c1ccccc1C2)N1CCN(c2ccccc2)CC1
The melting point of the first is lower: 202 to 204 °C for the first, 208 to 210 °C for the second.

Compared with `CN1CCC2(CC1)CN(c1ccccc1)c1ccccc12`, `CCCN1C(=O)c2cnc(-c3ccccc3)nc2N(C(=O)CN2CCN(C)CC2)c2ccccc21` is higher in melting point: 90 to 92 °C for the first, 148 to 150 °C for the second.

Compared with `COC(=O)c1cc(F)c(C(F)(F)F)cc1[N+](=O)[O-]`, `COC(=O)c1ccc(C(F)F)nc1C` is higher in melting point: 66 to 68 °C for the first, 135 to 136 °C for the second.

Compared with `CCc1c(-c2ccc(O)cc2)c2cc(COC)c3cccc1n32`, `CCc1nnc(-c2ccc(OC)cc2)n1-c1ccc(Cl)cc1` is higher in melting point: 137 to 141 °C for the first, 162 °C for the second.

First: O=C1NC(=O)c2c1c(-c1ccc(CO)cc1)cc1[nH]c3ccc(O)cc3c21
Second: O=c1oc(=O)n(Cc2ccc(F)cc2)c2ccc(F)cc12
The melting point of the first is higher: 266 to 271 °C for the first, 107 °C for the second.

First: O=C(CCCCSc1nc(-c2ccccc2)c(-c2ccccc2)[nH]1)NCCOCCO
Second: O=C1[C@H]2CCC[C@H]2N(C(=O)CCCCCBr)c2ccccc2N1Cc1ccccc1 (relative stereo)
The melting point of the first is higher: 176 to 178 °C for the first, 111 to 112 °C for the second.

First: C/C(=N\OCCCOc1ccc(C(=O)O)c(NC(=O)c2ccc(C(F)(F)F)cc2)c1)c1ccccc1
Second: O=C(O)CN1C(=O)C(=Cc2ccc(OCc3ccc(C(F)(F)F)cc3)c(OCc3ccccc3)c2)SC1=S
The melting point of the first is lower: 174 to 176 °C for the first, 257 to 263 °C for the second.

First: COc1cc(CNC(=S)NC(COC(=O)C(C)(C)C)Cc2ccc(C(C)(C)C)cc2)ccc1OCCN (stereo not drawn)
Second: COC(=O)C(C)(C)Cc1c(SC(C)(C)C)c2cc(O)ccc2n1Cc1ccc(Cl)cc1
The melting point of the first is lower: 63 to 65 °C for the first, 170 to 171 °C for the second.

First: COC(=O)C(OC)(OC)c1ccccc1Br
Second: CNC(=O)N1CC(Oc2ccccc2C(F)(F)F)C1
The melting point of the first is lower: 55 °C for the first, 134 to 136 °C for the second.

First: CC(=O)C(Cc1nsc2ccc(-n3c(=O)cc(C(F)(F)F)n(C)c3=O)cc12)C(=O)OC(C)(C)C (stereo not drawn)
Second: CC(C)(C)C(=O)Nc1nc(O)c2cc(CCc3ccc(C(=O)O)cc3)cnc2n1
The melting point of the first is lower: 76 to 78 °C for the first, over 300 °C for the second.

Compared with `COc1ccc2cc(I)ccc2c1`, `CCCc1c(O)ccc2ccc(OCC(=O)OC)cc12` is lower in melting point: 142 to 143 °C for the first, 122 to 124 °C for the second.

First: CCCCCCCCCCCCCCCCSCC(CNS(=O)(=O)CCCI)NC(=O)OCCCC (stereo not drawn)
Second: CCCCCC(O)CCCN(CCCCCCC(=O)O)C(N)=O (stereo not drawn)
The melting point of the first is higher: 82 to 83 °C for the first, 75 to 76 °C for the second.

Compared with `Cc1cc2[nH]c(=O)c(C(=O)O)c(-c3ccccc3C)c2cc1C`, `Cc1cc(C)c2nc(C)c(NC(=O)Nc3ccc(F)cc3F)c(-c3ccccc3Cl)c2c1` is lower in melting point: 236 to 237 °C for the first, 234 to 235 °C for the second.

First: CCc1nc2c(Cl)nc(C)cc2n1-c1ccc(CCNC(=O)NS(=O)(=O)c2ccc(C)cc2)cc1
Second: Cc1c(CC(=O)OCCCCO)cc(-c2ccc(S(C)(=O)=O)cc2)n1-c1ccc(F)cc1
The melting point of the first is higher: 163 °C for the first, 149 to 151 °C for the second.

Compared with `C=C(C)OC(=O)c1ccc(C(=O)OC(=C)C)cc1`, `COC(=O)c1ccc(C(=O)NNC(=O)C=Cc2ccccc2)cc1` is higher in melting point: 72 to 73.5 °C for the first, 207 °C for the second.

First: CCC(=O)NCCc1cnn2ccc3occc3c12
Second: CCCC(=O)C1=C(O)CC(c2ccc3occc3c2)CC1=O (stereo not drawn)
The melting point of the first is higher: 104 to 106 °C for the first, 71 °C for the second.

First: O=C(Nc1cccnc1)N1CCN(c2nc(-c3ccccc3)cs2)CC1
Second: c1ccc(-c2ccc3c(c2)CCN(Cc2c[nH]c4ncccc24)C3)cc1
The melting point of the first is lower: 74 to 75 °C for the first, 211 to 213 °C for the second.

First: C#Cc1ccc2c(c1)C(c1ccccc1)=NCc1c(C(=O)NC)ncn1-2
Second: O=[N+]([O-])c1ccc2c(c1)C(c1ccccc1)=NCC(OP(=O)(N1CCOCC1)N1CCOCC1)=N2
The melting point of the first is higher: 237 to 238 °C for the first, 208 to 209 °C for the second.

First: CO[C@@H]1[C@@H](OC)[C@H](C)O[C@@H](ONC(=O)c2ccc(-c3cn(-c4ccc(OC(F)(F)F)cc4)cn3)cc2)[C@@H]1OC
Second: COc1cc(C(C)=O)ccc1OCCN1CCC(C(c2ccc(F)cc2)c2ccc(F)cc2)CC1
The melting point of the first is higher: 185 °C for the first, 129 to 131 °C for the second.

First: Cn1c(=O)[nH]c2c(C(N)=O)nc(-c3cccnc3)nc21
Second: CC(C)(C)C(=O)c1c[nH]c2ncc(-n3ccnc3)nc12
The melting point of the first is higher: over 350 °C for the first, 215 to 217 °C for the second.

Compared with `CC(C)(C)OC(=O)NCc1nc(C(=O)NNC(=O)OCc2ccccc2)cc(OCc2ccccc2)c1OCc1ccccc1`, `CC(C)(C)OC(=O)CON=C(C(=O)OC(c1ccccc1)c1ccccc1)c1ncsn1` is higher in melting point: 128 to 129 °C for the first, 139 to 141 °C for the second.

First: Cc1ccc(N=C2NCCN2)cc1NS(C)(=O)=O
Second: CC(=O)NCC1CN(c2ccc(N(C)C=O)c(F)c2)C(=O)O1 (stereo not drawn)
The melting point of the first is higher: 124 to 126 °C for the first, 116 to 117 °C for the second.

First: COc1ccc(-c2nc(-c3[nH]cc(C)c3C)[nH]c2-c2ccc(OC)cc2)cc1
Second: COC(=O)Cc1ccc(Oc2ccc(S(C)(=O)=O)cc2)cc1
The melting point of the first is higher: 134 °C for the first, 93 to 98 °C for the second.

First: O=c1oc(-c2cc(C(F)(F)F)cc(C(F)(F)F)c2)cc(O)c1SCc1ccccc1
Second: CCNC(=O)c1sc(-n2ccc(OCc3ccccc3)cc2=O)cc1C
The melting point of the first is lower: 80 to 82 °C for the first, 158 to 160 °C for the second.

First: Fc1ccc(-c2[nH]c(=S)sc2CCCl)cc1
Second: O=C1CCC(Cc2ccc(Cl)cc2)N1 (stereo not drawn)
The melting point of the first is higher: 176 °C for the first, 95 to 98 °C for the second.

Compared with `CCCCCCCCCCCc1nccn1-c1nc(-c2ccc(Cl)cc2)c(CCCOc2ccccc2OC)o1`, `CCc1cc(-c2ccc(F)cc2)c(O)cc1OCCCOc1cccc(Oc2ccccc2C(=O)O)c1CC(C)C` is lower in melting point: 53 to 54 °C for the first, 48 to 49 °C for the second.

First: C=C(C)Cc1c(C)c(NC(C)=O)cc(C)c1O
Second: CCCCCCCCNC(=O)c1cc(C(C)(C)C)c(O)c(C(C)(C)C)c1
The melting point of the first is higher: 183 to 185 °C for the first, 133 to 135 °C for the second.

First: O=C1C=C(O)CC(c2ccc3sccc3c2)C1 (stereo not drawn)
Second: O=c1cc(N2CCOCC2)cc(-c2ccc(Cl)cc2)o1
The melting point of the first is lower: 192 °C for the first, 236 to 237 °C for the second.

First: Cc1oc2c(NC(=O)c3c(Cl)cccc3Cl)cccc2c1COC(=O)CCCC(=O)NC(P(=O)(O)O)P(=O)(O)O
Second: CCCc1c(O)c(C(C)=O)cc(Cl)c1OCCCOc1ccc2ccc(OCC(=O)O)cc2c1C(C)=O
The melting point of the first is higher: 190 to 195 °C for the first, 132 to 134 °C for the second.

Compared with `CCCS(=O)(=O)c1c(C)nn(-c2c(Cl)cc(C(F)(F)F)cc2Cl)c1N`, `Cc1nc(N)nc(N)c1-c1cc(Cl)ccc1Cl` is higher in melting point: 146 to 147 °C for the first, 226 to 228 °C for the second.

Compared with `CC(=O)SCC(Cc1ccccc1)C(=O)Nc1ccc(Cl)c(C(=O)O)c1` (stereo not drawn), `CC(COc1ccc(O)c(C(N)=O)c1)NCC(O)c1ccccc1` (stereo not drawn) is lower in melting point: 163 to 165 °C for the first, 152 to 154 °C for the second.

Compared with `COc1ccc(N2CCN(c3c(C)c(C)c4c(c3C)C(N3CCCC3)C(C)(C)O4)CC2)cc1` (stereo not drawn), `Cc1c(C)c(N2CCN(c3ccc(C(C)O)cc3)CC2)c(C)c2c1OC(C)(C)C2` (stereo not drawn) is higher in melting point: 124 to 126 °C for the first, 133 to 136 °C for the second.

Compared with `Clc1ccc(Cl)c(Oc2cccc(Cl)n2)c1`, `Cc1cc(Cl)ccc1-c1cccc2c1OC(CN)CN2C` (stereo not drawn) is higher in melting point: 82 to 84 °C for the first, 109 to 112 °C for the second.

First: N#CSc1nc(C(F)(F)F)nc2ccccc12
Second: CCOCCCNc1nc(C)[nH]c2cc(-c3ccccc3)nc1-2
The melting point of the first is lower: 134 to 136 °C for the first, 208 to 210 °C for the second.

First: O=C(N[C@H]1CC[C@H](CCN2CCC(c3cccc4c3CCO4)CC2)CC1)c1ccc2ncccc2c1
Second: OCCCc1ccc2ccn(C3CCN(CCc4ccc(F)cc4)CC3)c2c1
The melting point of the first is higher: 238 °C for the first, 131 to 133 °C for the second.

Compared with `Fc1cc(F)c2c(c1)CC(n1cc[nH]c1=S)CC2` (stereo not drawn), `CCOC(=O)c1cn(C2CC2)c2nc(Cl)c(F)cc2c1=O` is lower in melting point: 250 to 251 °C for the first, 176 to 178 °C for the second.

Compared with `Brc1ccc(C2CC(n3cncn3)c3ccccc3N2)cc1` (stereo not drawn), `O=C1CN(c2ccc(Cl)cc2)C(=S)N1c1ccc(Cc2ccccc2)cc1` is lower in melting point: 158 to 160 °C for the first, 153 °C for the second.

First: COCOc1nn(-c2ccccc2)cc1/C=C/c1csc(-c2ccccc2C(=O)OC)n1
Second: CC(C)c1cccc(C(C)C)c1NC(=O)CC(=O)c1ccccc1
The melting point of the first is higher: 134 to 135 °C for the first, 124 to 126 °C for the second.

First: COc1ccc(Cl)c(Cc2c(Cl)nc(N3CCOCC3)nc2NS(=O)(=O)c2ccc(C(C)(C)C)cc2)c1
Second: CC(C)(C)[Si](C)(C)Oc1ccc(NC(=O)CN2CCC(O)(Cc3ccc(Cl)cc3)CC2)cc1
The melting point of the first is higher: 159 to 162 °C for the first, 135 to 136 °C for the second.

Compared with `NC(CC(=O)NC1CC1)C1CC1` (stereo not drawn), `O=Nc1ccc(NC2CCCCC2)cc1` is lower in melting point: 116 to 118 °C for the first, 90 to 92 °C for the second.

Compared with `COC(=O)CCCCCCC1=CC(O)CC1=O` (stereo not drawn), `COc1ccc(CNC(=S)NNC(=O)C(N)=O)cc1` is higher in melting point: 50 to 51 °C for the first, 185 to 190 °C for the second.

First: O=C(O)c1ccc2cc([N+](=O)[O-])c3ccc(C(=O)O)nc3c2n1
Second: Cc1[nH]c2ccc(OC(C)C(C)N3CCCC3)cc2c1C(=O)OCc1ccccc1 (stereo not drawn)
The melting point of the first is higher: 218 to 220 °C for the first, 94 to 98 °C for the second.

First: CC(C)(c1ccc(Oc2ccc([N+](=O)[O-])cc2F)cc1)c1cccc(C(C)(C)c2ccc(Oc3ccc([N+](=O)[O-])cc3F)cc2)c1
Second: CCCCc1nn(Cc2ccc(-c3ccccc3-c3nnn[nH]3)cc2)c(=O)n1Cc1ccc(-c2ccccc2-c2nnn[nH]2)cc1
The melting point of the first is higher: 151 to 152 °C for the first, 150 to 151 °C for the second.

Compared with `CCCCOc1cc(/C=C(\OCC)C(=O)O)ccc1OCCc1ccc(OS(C)(=O)=O)cc1`, `CCCN(CCC)C(=O)Cc1c(-c2ccc(C)cc2)nn2cccnc12` is lower in melting point: 117 °C for the first, 110 to 111 °C for the second.

Compared with `CCN(CC)C(=O)c1c(C=O)ccnc1OC`, `CCC1(CC)COC(c2cccc(NC(=O)NC)c2)OC1` is higher in melting point: under 50 °C for the first, 112 to 125 °C for the second.

First: O=S(=O)(O)c1cc(NCc2c(F)c(F)c(C(F)(F)F)c(F)c2F)ccc1O
Second: Cc1c(NC(=O)c2ccc(OC[C@@H]3CCCO3)cc2F)ccc2cc(CNCC(C)(C)O)[nH]c12
The melting point of the first is higher: over 300 °C for the first, 148 to 149 °C for the second.

First: C[Si](C)(C)OC1(C#N)CCOc2c(Cl)cc(Cl)cc21 (stereo not drawn)
Second: Cn1c(Br)c(Br)c(Br)c1C#N
The melting point of the first is lower: 77 to 79 °C for the first, 115 to 119 °C for the second.

— a melting point compilation (Tetko et al.; mined from patent text by program, amines drawn as free bases though some values may be those of a salt)
